Data taken from patent publication US5593985A, “Cephalosporin compounds” (priority 1994, dated 1997).
Converted amounts (≈) assume the structure as drawn.

Assays:
[1] = test system: Streptococcus pyogenes A 308; test: MIC, standard strain 1; assay type: cell-based; settings: A308, S. pyogenes A 308, two-fold dilution, Muller Hinton agar, 10^7 CFU/ml, 37° C., 18 hours, read-out: Minimal Inhibitory Concentration(MIC)
Method: (§1) In order to illustrate antibiotic effectiveness of the compounds of the present invention, the minimal inhibitory concentrations (MIC's) of the representative compounds were determined against standard strains and compared with ceftazidime and cefpirome, which were used as control compounds.
(§2) The MIC values were taken by employing a two-fold dilution method: that is, two-fold serial dilutions of each of the test compounds were made from initial concentration of […]; each 1.5 ml of them was dispersed in 13.5 ml of Muller Hinton agar medium to adjust to […]; the standard test strain which had the concentration of 10^7 CFU/ml was inoculated by medium;and these were incubated at 37° C. for 18 hours.
(§3) The test used twenty kinds of standard test strains which induced urinary tract infections, respiratory organ infections, skin soft tissue infections, plasma infections, gastrointestinal infections, central nervous system infections, most of which produce β-lactamase. The standard test strains used are as follows:
1. Streptococcus pyogenes A 308

[2] = test system: Staphylococcus aureus 285; test: MIC, standard strain 5; assay type: cell-based; settings: Staphylococcus aureus; S. aureus 285; two-fold dilution, Muller Hinton agar, 10^7 CFU/ml, 37° C., 18 hours; read-out: Minimal Inhibitory Concentration(MIC)
Method: as §1, §2, §3
5. Staphylococcus aureus 285

[3] = test system: Staphylococcus aureus 503; test: MIC, standard strain 6; assay type: cell-based; settings: Staphylococcus aureus; S. aureus 503; two-fold dilution, Muller Hinton agar, 10^7 CFU/ml, 37° C., 18 hours; read-out: Minimal Inhibitory Concentration(MIC)
Method: as §1, §2, §3
6. Staphylococcus aureus 503

Escherichia coli DC 0 = test: MIC, standard strain 8; assay type: cell-based; settings: DC0, E. coli DC 0, two-fold dilution, Muller Hinton agar, 10^7 CFU/ml, 37° C., 18 hours, read-out: Minimal Inhibitory Concentration(MIC)
Method: as §1, §2
The test used twenty kinds of standard test strains which induced urinary tract infections, respiratory organ infections, skin soft tissue infections, plasma infections, gastrointestinal infections, central nervous system infections, most of which produce β-lactamase.

[4] = test system: Pseudomonas aeruginosa 9.027; test: MIC, standard strain 12; assay type: cell-based; settings: Pseudomonas aeruginosa; P. aeruginosa 9.027; two-fold dilution, Muller Hinton agar, 10^7 CFU/ml, 37° C., 18 hours; read-out: Minimal Inhibitory Concentration(MIC)
Method: as §1, §2, §3
12. Pseudomonas aeruginosa 9.027

[5] = test system: Enterobacter cloacae P 99; test: MIC, standard strain 19; assay type: cell-based; settings: P99, 18 h, read-out: Minimal Inhibitory Concentration(MIC)
Method: as §1, §2, §3
19. Enterobacter cloacae P 99

Enterobactercloacas = test: MIC, clinically separated strains; assay type: cell-based; settings: Enterobacter cloacae, 18 h, 20 clinical strains; for MIC: read-out: range of MIC
Method: as §2

MRSA(KAIST) = test: MIC, clinically separated strains; assay type: cell-based; settings: Staphylococcus aureus, 18 h; for MIC50 / MIC90: 15 clinical strains; for MIC: read-out: range of MIC, 15 clinical strains
Method: as §2

Morganella morganii = test: MIC, clinically separated strains; assay type: cell-based; settings: 18 h; for MIC50 / MIC90: 5 clinical strains; for MIC: read-out: range of MIC, 5 clinical strains
Method: as §2

Proteus mirabilis = test: MIC, clinically separated strains; assay type: cell-based; settings: 18 h; for MIC50 / MIC90: 4 clinical strains; for MIC: read-out: range of MIC, 4 clinical strains
Method: as §2

Proteus vulgaris = test: MIC, clinically separated strains; assay type: cell-based; settings: 18 h; for MIC50 / MIC90: 5 clinical strains; for MIC: read-out: range of MIC, 5 clinical strains
Method: as §2

Pseudomonas II = test: MIC, clinically separated strains; assay type: cell-based; settings: 18 h; for MIC: read-out: range of MIC
Method: as §2

Pseudomonas aeruginosa = test: MIC, clinically separated strains; assay type: cell-based; settings: 18 h; for MIC50 / MIC90: 20 clinical strains; for MIC: read-out: range of MIC, 20 clinical strains
Method: as §2

Streptococcus II = test: MIC, clinically separated strains; assay type: cell-based; settings: 18 h; for MIC50 / MIC90: 17 clinical strains; for MIC: read-out: range of MIC, 17 clinical strains
Method: as §2

MRSA(Yonsei Univ.) = test: MIC, clinically separated strains; assay type: cell-based; set-up: range of MIC: unit not given here
Method: as §2

Streptococcus I = test: MIC, clinically separated strains; assay type: cell-based; set-up: range of MIC: unit not given here; settings: 20 clinical strains; for MIC50 / MIC90: Streptococcus, 18 h
Method: as §2

[6] = test system: Streptococcus pyogens A77; test: antibiotic activity against systemic infection in mice; assay type: in vivo; settings: A77, im, bacteria intraperitoneally, intramuscular injection, 5 to 0.078 mg/kg, probit method (confidence limit), read-out: PD50
Method: In order to illustrate clinical effectiveness of the compounds of the present invention more specifically, the stability to β-lactamase and antibiotic activity against systemic infection, were tested, and the results are shown in Table 4 and 5, respectively.
Antibiotic activity against systematic infection was tested by using mice: that is, 0.3 ml of a strain solution containing fatal dose of bacteria in 0.3 ml was administered to mice intraperitoneally; and then, the test antibiotics were administered intramuscularly in an amount of 5 to 0.078 mg/kg. PD50 was calculated by probit method.

acute toxicity test = settings: in vivo, iv
Pseudomonas = settings: compared with DQ-2556 or ceftazidime; cited from earlier work
[7] = test system: Gram-negative and Gram-positive bacteria; settings: cited from earlier work
[8] = Staphylococcus aureus, MRSA, 18 h, 17 clinical strains

Row | SMILES | MIC [1] [µg/mL] | MIC [2] [µg/mL] | MIC [3] [µg/mL] | MIC (Escherichia coli DC 0) [µg/mL] | MIC [4] [µg/mL] | MIC [5] [µg/mL] | MIC (Enterobactercloacas) [µg/mL] | MIC50 (Enterobactercloacas) [µg/mL] | MIC90 (Enterobactercloacas) [µg/mL] | MIC50 (MRSA(KAIST)) [µg/mL] | MIC90 (MRSA(KAIST)) [µg/mL] | MIC (MRSA(KAIST)) [µg/mL] | MIC50 (Morganella morganii) [µg/mL] | MIC90 (Morganella morganii) [µg/mL] | MIC (Morganella morganii) [µg/mL] | MIC50 (Proteus mirabilis) [µg/mL] | MIC90 (Proteus mirabilis) [µg/mL] | MIC (Proteus mirabilis) [µg/mL] | MIC50 (Proteus vulgaris) [µg/mL] | MIC90 (Proteus vulgaris) [µg/mL] | also measured
1 | CO/N=C(\C(=O)N[C@@H]1C(=O)N2C(C(=O)[O-])=C(C[n+]3ccc(C(N)=O)c4c3CCC4)CS[C@H]12)c1csc(N)n1 [Example 3] | 0.7 (≈ 1.26 µM) | 781 (≈ 1400 µM) | 391 (≈ 701 µM) | 25 (≈ 44.8 µM) | 1560 (≈ 2800 µM) | 3120 (≈ 5600 µM) | 0.013 to 1.56 (≈ 0.0233 to 2.8 µM) | 0.025 (≈ 0.0448 µM) | 0.049 (≈ 0.0879 µM) | 6.25 (≈ 11.2 µM) | 50 (≈ 89.7 µM) | 0.781 to 100 (≈ 1.4 to 179 µM) | 0.013 (≈ 0.0233 µM) | 0.025 (≈ 0.0448 µM) | 0.013 to 0.025 (≈ 0.0233 to 0.0448 µM) | 0.013 (≈ 0.0233 µM) | 0.049 (≈ 0.0879 µM) | 0.007 to 0.049 (≈ 0.0126 to 0.0879 µM) | 0.025 (≈ 0.0448 µM) | 0.098 (≈ 0.176 µM) | MIC (Proteus vulgaris): 0.025 to 0.098 µg/mL (≈ 0.0448 to 0.176 µM); MIC50 (Pseudomonas II): 1.56 µg/mL (≈ 2.8 µM); MIC90 (Pseudomonas II): 6.25 µg/mL (≈ 11.2 µM); MIC (Pseudomonas II): 0.781 to 12.5 µg/mL (≈ 1.4 to 22.4 µM); MIC50 (Pseudomonas aeruginosa): 3.12 µg/mL (≈ 5.6 µM); MIC90 (Pseudomonas aeruginosa): 6.25 µg/mL (≈ 11.2 µM); MIC (Pseudomonas aeruginosa): 0.781 to 12.5 µg/mL (≈ 1.4 to 22.4 µM); MIC50 (Streptococcus II): 0.004 µg/mL (≈ 0.00717 µM); MIC90 (Streptococcus II): 0.007 µg/mL (≈ 0.0126 µM); MIC (Streptococcus II): 0.002 to 0.007 µg/mL (≈ 0.00359 to 0.0126 µM); antibiotic activities against MRSA(Yonsei Univ.), in words (MRSA(Yonsei Univ.)): unexpectedly potent antibiotic activities; range of MIC (MRSA(Yonsei Univ.); 17 clinical strains): 0.013-100.000; MIC50 (MRSA(Yonsei Univ.); [8]): 12.5 µg/mL (≈ 22.4 µM); MIC90 (MRSA(Yonsei Univ.); [8]): 100 µg/mL (≈ 179 µM); range of MIC (Streptococcus I): 0.007-25.000; MIC50 (Streptococcus I): 0.025 µg/mL (≈ 0.0448 µM); MIC90 (Streptococcus I): 12.5 µg/mL (≈ 22.4 µM); ED50 [6]: 0.29 mg/kg; LD50 (acute toxicity test): > 3000 mg/kg
2 | CO/N=C(\C(=O)N[C@@H]1C(=O)N2C(C(=O)[O-])=C(C[n+]3cccc4c3CCC4)CS[C@H]12)c1csc(N)n1 [cefpirome, reference compound] | 4 (≈ 7.77 µM) | 781 (≈ 1520 µM) | 13 (≈ 25.3 µM) | 49 (≈ 95.2 µM) | 3120 (≈ 6070 µM) | 3120 (≈ 6070 µM) | 0.013 to 1.56 (≈ 0.0253 to 3.04 µM) | 0.025 (≈ 0.0486 µM) | 0.098 (≈ 0.19 µM) | 12.5 (≈ 24.3 µM) | 100 (≈ 194 µM) | 0.781 to 100 (≈ 1.52 to 194 µM) | 0.013 (≈ 0.0253 µM) | 0.025 (≈ 0.0486 µM) | 0.013 to 0.025 (≈ 0.0253 to 0.0486 µM) | 0.013 (≈ 0.0253 µM) | 0.049 (≈ 0.0952 µM) | 0.007 to 0.049 (≈ 0.0136 to 0.0952 µM) | 0.049 (≈ 0.0952 µM) | 0.098 (≈ 0.19 µM) | MIC (Proteus vulgaris): 0.025 to 0.098 µg/mL (≈ 0.0486 to 0.19 µM); MIC50 (Pseudomonas II): 1.56 µg/mL (≈ 3.04 µM); MIC90 (Pseudomonas II): 6.25 µg/mL (≈ 12.1 µM); MIC (Pseudomonas II): 0.781 to 12.5 µg/mL (≈ 1.52 to 24.3 µM); MIC50 (Pseudomonas aeruginosa): 3.12 µg/mL (≈ 6.07 µM); MIC90 (Pseudomonas aeruginosa): 12.5 µg/mL (≈ 24.3 µM); MIC (Pseudomonas aeruginosa): 0.781 to 12.5 µg/mL (≈ 1.52 to 24.3 µM); MIC50 (Streptococcus II): 0.004 µg/mL (≈ 0.00777 µM); MIC90 (Streptococcus II): 0.007 µg/mL (≈ 0.0136 µM); MIC (Streptococcus II): 0.002 to 0.007 µg/mL (≈ 0.00389 to 0.0136 µM); antibiotic activities against MRSA(Yonsei Univ.), in words (MRSA(Yonsei Univ.)): shows resistance to cefpirome; MIC (MRSA(Yonsei Univ.); Staphylococcus aureus, MRSA, 18 h, read-out: range of MIC, 17 clinical strains): 100 µg/mL (≈ 194 µM); MIC50 (MRSA(Yonsei Univ.); [8]): 100 µg/mL (≈ 194 µM); MIC90 (MRSA(Yonsei Univ.); [8]): 100 µg/mL (≈ 194 µM); MIC50 (Streptococcus I): 0.025 µg/mL (≈ 0.0486 µM); MIC90 (Streptococcus I): 12.5 µg/mL (≈ 24.3 µM); activity against Pseudomonas, in words (Pseudomonas): inferior to ceftazidime; activity against Gram-negative and Gram-positive bacteria, in words [7]: improved activity against Gram-negative and Gram-positive bacteria
